Results on 28 compounds are retold here after patent US8846719B2, “Isoxazolo-pyridine derivatives” (Roche Palo Alto LLC, priority 2007, dated 2014).

Molecules are shown by their SMILES.

This test deals with human GABA A receptor α5β3γ2 (Homo sapiens (Human), UniProt P18507+P31644). Nature of the test: [3H]flumazenil competition binding assay, human GABA A α5β3γ2 receptors expressed in HEK293 cells. The settings on record: human receptor; displacement of [3H]flumazenil (0.5 nM); means of two determinations; read-out: hKi GABAAa5. In outline:
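Ki values, each the mean of two runs, derive from displacement of [3H]flumazenil from human α5β3γ2 GABA A receptors transiently expressed in HEK293 membranes. Binding ran 1 h at 4° C in Krebs-tris, pH 7.5, before filter harvest and scintillation counting.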
In general terms: In a radioligand displacement assay an active substance lowers the binding of a labelled ligand.
On to `Cc1onc(-c2ccccc2)c1CNc1ccc(C(=O)NC2CCOCC2)cn1` [Example 166, 6-[(5-Methyl-3-phenyl-isoxazol-4-ylmethyl)-amino]-N-(tetrahydro-pyran-4-yl)-nicotinamide], for which the Ki stood at 8.8 nM.

In the case of `COC(=O)c1ccc(NCc2c(-c3cccc(F)c3)noc2C)nc1` [Example 167, 6-{[3-(3-Fluoro-phenyl)-5-methyl-isoxazol-4-ylmethyl]-amino}-nicotinic acid methyl ester], the Ki amounted to 69.3 nM.

Consider `Cc1onc(-c2cccc(F)c2)c1CNc1ccc(C(=O)NCC(F)(F)F)cn1` [Example 168, 6-{[3-(3-Fluoro-phenyl)-5-methyl-isoxazol-4-ylmethyl]-amino}-N-(2,2,2-trifluoro-ethyl)-nicotinamide], for which the Ki was determined as 17.8 nM.

In the case of `Cc1onc(-c2cccc(F)c2)c1CNc1ccc(C(=O)NC(C)C)cn1` [Example 169, 6-{[3-(3-Fluoro-phenyl)-5-methyl-isoxazol-4-ylmethyl]-amino}-N-isopropyl-nicotinamide], the Ki stood at 15.4 nM.

In the case of `Cc1onc(-c2cccc(F)c2)c1CNc1ccc(C(=O)NC2CC2)cn1` [Example 170, N-Cyclopropyl-6-{[3-(3-fluoro-phenyl)-5-methyl-isoxazol-4-ylmethyl]-amino}-nicotinamide], the Ki was determined as 19.4 nM.

As for `Cc1onc(-c2cccc(F)c2)c1CNc1ccc(C(=O)NC2CCOCC2)cn1` [Example 171, 6-{[3-(3-Fluoro-phenyl)-5-methyl-isoxazol-4-ylmethyl]-amino}-N-(tetrahydro-pyran-4-yl)-nicotinamide], the Ki turned out to be 14.9 nM.

Regarding `COC(=O)c1ccc(NCc2c(-c3ccc(F)cc3)noc2C)nc1` [Example 172, 6-{[3-(4-Fluoro-phenyl)-5-methyl-isoxazol-4-ylmethyl]-amino}-nicotinic acid methyl ester], the Ki worked out at 25.9 nM.

`Cc1onc(-c2ccc(F)cc2)c1CNc1ccc(C(=O)NCC(F)(F)F)cn1` [Example 173, 6-{[3-(4-Fluoro-phenyl)-5-methyl-isoxazol-4-ylmethyl]-amino}-N-(2,2,2-trifluoro-ethyl)-nicotinamide]: the Ki was found to be 5.9 nM.

For the compound `Cc1onc(-c2ccc(F)cc2)c1CNc1ccc(C(=O)NCC2CC2)cn1` [Example 174, N-Cyclopropylmethyl-6-{[3-(4-fluoro-phenyl)-5-methyl-isoxazol-4-ylmethyl]-amino}-nicotinamide], the Ki was 7.6 nM.

On to `Cc1onc(-c2ccc(F)cc2)c1CNc1ccc(C(=O)NC(C)C)cn1` [Example 175, 6-{[3-(4-Fluoro-phenyl)-5-methyl-isoxazol-4-ylmethyl]-amino}-N-isopropyl-nicotinamide], for which the Ki is 3.7 nM.

As for `Cc1onc(-c2ccc(F)cc2)c1CNc1ccc(C(=O)NC2CC2)cn1` [Example 176, N-Cyclopropyl-6-{[3-(4-fluoro-phenyl)-5-methyl-isoxazol-4-ylmethyl]-amino}-nicotinamide], the Ki was found to be 7.4 nM.

`Cc1onc(-c2ccc(F)cc2)c1CNc1ccc(C(=O)NC2CCOCC2)cn1` [Example 177, 6-{[3-(4-Fluoro-phenyl)-5-methyl-isoxazol-4-ylmethyl]-amino}-N-(tetrahydro-pyran-4-yl)-nicotinamide]: the Ki stood at 6.5 nM.

As to `Cc1onc(-c2ccc(F)cc2)c1CNc1ccc(C(=O)N2CCS(=O)(=O)CC2)cn1` [Example 178, (1,1-Dioxo-1,6-thiomorpholin-4-yl)-(6-{[3-(4-fluoro-phenyl)-5-methyl-isoxazol-4-ylmethyl]-amino}-pyridin-3-yl)-methanone], the Ki came out at 29.2 nM.

Take `CC(=O)Nc1ccc(OCc2c(-c3ccccc3)noc2C)nc1` [Example 179, N-[6-(5-Methyl-3-phenyl-isoxazol-4-ylmethoxy)-pyridin-3-yl]-acetamide]: the Ki was found to be 9.4 nM.

Take `COC(=O)C(=O)Nc1ccc(OCc2c(-c3ccccc3)noc2C)nc1` [Example 180, N-[6-(5-Methyl-3-phenyl-isoxazol-4-ylmethoxy)-pyridin-3-yl]-oxalamic acid methyl ester]: the Ki stood at 7.2 nM.

Turning to `Cc1onc(-c2ccccc2)c1COc1ccc(NC(=O)C(C)C)cn1` [Example 181, N-[6-(5-Methyl-3-phenyl-isoxazol-4-ylmethoxy)-pyridin-3-yl]-isobutyramide], the Ki was found to be 19.2 nM.

Regarding `Cc1onc(-c2ccccc2)c1COc1ccc(NC(=O)C2CC2)cn1` [Example 182, Cyclopropanecarboxylic acid [6-(5-methyl-3-phenyl-isoxazol-4-ylmethoxy)-pyridin-3-yl]-amide], the Ki came to 10.1 nM.

As to `Cc1onc(-c2ccccc2)c1COc1ccc(C(=O)NC(C)(C)CO)cn1` [Example 183, N-(2-Hydroxy-1,1-dimethyl-ethyl)-6-(5-methyl-3-phenyl-isoxazol-4-ylmethoxy)-nicotinamide], the Ki was 10 nM.

`COCCNC(=O)c1ccc(OCc2c(-c3ccccc3)noc2C)nc1` [Example 184, N-(2-Methoxy-ethyl)-6-(5-methyl-3-phenyl-isoxazol-4-ylmethoxy)-nicotinamide]: the Ki amounted to 7.8 nM.

As for `Cc1onc(-c2ccccc2)c1COc1ccc(C(=O)NC2CCS(=O)(=O)C2)cn1` (stereo not shown) [Example 185, N-(1,1-Dioxo-tetrahydro-thiophen-3-yl)-6-(5-methyl-3-phenyl-isoxazol-4-ylmethoxy)-nicotinamide], the Ki came out at 4.5 nM.

As to `Cc1onc(-c2ccccc2)c1COc1ccc(C(=O)NCC(O)C(F)(F)F)cn1` (stereo not shown) [Example 186, 6-(5-Methyl-3-phenyl-isoxazol-4-ylmethoxy)-N-(3,3,3-trifluoro-2-hydroxy-propyl)-nicotinamide], the Ki was determined as 2.3 nM.

For the compound `Cc1onc(-c2ccccc2)c1COc1ccc(C(=O)N2CCC(O)CC2)cn1` [Example 187, (4-Hydroxy-piperidin-1-yl)-[6-(5-methyl-3-phenyl-isoxazol-4-ylmethoxy)-pyridin-3-yl]-methanone], the Ki worked out at 73.4 nM.

Turning to `Cc1onc(-c2ccccc2)c1COc1ccc(C(=O)NCC(C)(C)CO)cn1` [Example 188, N-(3-Hydroxy-2,2-dimethyl-propyl)-6-(5-methyl-3-phenyl-isoxazol-4-ylmethoxy)-nicotinamide], the Ki turned out to be 7.7 nM.

Regarding `Cc1onc(-c2ccccc2)c1COc1ccc(C(=O)NCCOC(C)C)cn1` [Example 189, N-(2-Isopropoxy-ethyl)-6-(5-methyl-3-phenyl-isoxazol-4-ylmethoxy)-nicotinamide], the Ki is 41.3 nM.

Consider `Cc1onc(-c2ccccc2)c1COc1ccc(C(=O)NC(C)CO)cn1` (stereo not shown) [Example 190, N-(2-Hydroxy-1-methyl-ethyl)-6-(5-methyl-3-phenyl-isoxazol-4-ylmethoxy)-nicotinamide], for which the Ki was found to be 1 nM.

Regarding `Cc1onc(-c2ccccc2)c1COc1ccc(C(=O)N2CC(O)C2)cn1` [Example 191, (3-Hydroxy-azetidin-1-yl)-[6-(5-methyl-3-phenyl-isoxazol-4-ylmethoxy)-pyridin-3-yl]-methanone], the Ki came to 5 nM.

Turning to `Cc1onc(-c2ccccc2)c1COc1ccc(C(=O)NC2CCCCC2O)cn1` (stereo not shown) [Example 192, N-(2-Hydroxy-cyclohexyl)-6-(5-methyl-3-phenyl-isoxazol-4-ylmethoxy)-nicotinamide], the Ki was 2.9 nM.

Regarding `Cc1onc(-c2ccccc2)c1COc1ccc(C(=O)NCC(C)(C)O)cn1` [Example 193, N-(2-Hydroxy-2-methyl-propyl)-6-(5-methyl-3-phenyl-isoxazol-4-ylmethoxy)-nicotinamide], the Ki turned out to be 2.3 nM.
